This is an account of results in US10870647B2, “Imidazopyridine derivative, method for preparing same, and pharmaceutical composition containing same as active ingredient for preventing or treating cancer” (DAEGU-GYEONGBUK MEDICAL INNOVATION FOUNDATION, priority 2016, dated 2020).

What all share (test): Kinase selectivity, scanMAX Kinase assay panel (DiscoverX), % control at 1 uM
Assay type in all cases: binding

The target in assay [1] is T1, scanMAX Kinase assay panel (Homo sapiens, UniProt P36897).
T1 construct: purchased DiscoverX
T1 sequence (P36897 34-503): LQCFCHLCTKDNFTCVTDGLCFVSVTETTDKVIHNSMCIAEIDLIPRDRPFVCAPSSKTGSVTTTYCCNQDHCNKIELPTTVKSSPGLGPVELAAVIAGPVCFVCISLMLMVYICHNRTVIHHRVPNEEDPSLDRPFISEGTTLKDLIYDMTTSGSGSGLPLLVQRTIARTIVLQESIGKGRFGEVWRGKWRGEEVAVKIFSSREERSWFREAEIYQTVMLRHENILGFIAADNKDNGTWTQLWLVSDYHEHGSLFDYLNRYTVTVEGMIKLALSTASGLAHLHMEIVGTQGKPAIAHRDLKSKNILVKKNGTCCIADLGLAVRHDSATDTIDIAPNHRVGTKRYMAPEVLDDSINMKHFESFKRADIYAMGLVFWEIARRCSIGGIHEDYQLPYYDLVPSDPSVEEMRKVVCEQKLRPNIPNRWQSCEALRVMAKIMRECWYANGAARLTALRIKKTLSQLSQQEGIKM
The following applies: TGFBR1; 1 uM; read-out: Percent Control (%). The essentials:
(§1)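 Single-point screen at 1 uM compound in DMSO. Lower % control means stronger inhibition, with the cutoff for activity set at <35%.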

Assay [2] addresses T2, scanMAX Kinase assay panel (Homo sapiens, UniProt Q8TF76).
T2 construct: purchased DiscoverX
T2 sequence (Q8TF76 1-798): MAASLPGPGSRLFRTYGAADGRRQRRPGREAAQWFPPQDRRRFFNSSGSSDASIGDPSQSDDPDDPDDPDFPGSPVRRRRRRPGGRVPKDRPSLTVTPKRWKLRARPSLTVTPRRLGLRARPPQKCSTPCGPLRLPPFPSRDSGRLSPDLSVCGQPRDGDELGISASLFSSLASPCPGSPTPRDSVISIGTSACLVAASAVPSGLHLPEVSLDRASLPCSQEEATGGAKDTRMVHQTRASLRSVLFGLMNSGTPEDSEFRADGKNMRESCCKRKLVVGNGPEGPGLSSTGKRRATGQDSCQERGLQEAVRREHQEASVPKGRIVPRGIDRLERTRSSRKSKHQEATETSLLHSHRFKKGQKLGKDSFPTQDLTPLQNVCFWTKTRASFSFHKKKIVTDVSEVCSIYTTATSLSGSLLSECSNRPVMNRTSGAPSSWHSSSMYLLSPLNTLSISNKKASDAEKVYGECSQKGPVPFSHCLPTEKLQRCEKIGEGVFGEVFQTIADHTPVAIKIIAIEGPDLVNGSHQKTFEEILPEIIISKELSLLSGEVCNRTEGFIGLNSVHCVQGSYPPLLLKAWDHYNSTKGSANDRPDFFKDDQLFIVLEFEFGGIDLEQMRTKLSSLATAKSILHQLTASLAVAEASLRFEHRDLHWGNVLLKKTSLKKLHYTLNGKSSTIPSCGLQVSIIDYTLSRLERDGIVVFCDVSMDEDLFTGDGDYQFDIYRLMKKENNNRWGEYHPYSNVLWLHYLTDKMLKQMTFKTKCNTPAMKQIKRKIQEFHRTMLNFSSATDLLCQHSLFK
As to conditions: HASPIN; 1 uM; read-out: Percent Control (%). A digest of the protocol:
as §1

The target of assay [3] is T3, scanMAX Kinase assay panel (Homo sapiens, UniProt P41240).
T3 construct: purchased DiscoverX
T3 sequence (P41240 whole entry): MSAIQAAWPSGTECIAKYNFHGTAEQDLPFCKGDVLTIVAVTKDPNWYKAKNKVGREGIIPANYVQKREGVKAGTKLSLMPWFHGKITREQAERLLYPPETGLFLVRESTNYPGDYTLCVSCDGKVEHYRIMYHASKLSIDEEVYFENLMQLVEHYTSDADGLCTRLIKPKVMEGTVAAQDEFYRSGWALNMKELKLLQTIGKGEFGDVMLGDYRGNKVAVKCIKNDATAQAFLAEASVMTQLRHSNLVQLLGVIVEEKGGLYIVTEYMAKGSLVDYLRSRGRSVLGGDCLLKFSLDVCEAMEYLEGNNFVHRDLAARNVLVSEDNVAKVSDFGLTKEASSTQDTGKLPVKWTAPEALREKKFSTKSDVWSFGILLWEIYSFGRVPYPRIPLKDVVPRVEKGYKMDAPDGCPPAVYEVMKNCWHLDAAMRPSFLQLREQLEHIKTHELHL
As to conditions: CSK; 1 uM; read-out: Percent Control (%). The essentials:
as §1

The target of assay [4] is T4, scanMAX Kinase assay panel (Homo sapiens, UniProt P36888, N841I).
T4 construct: purchased DiscoverX
T4 sequence (P36888 27-993 N841I): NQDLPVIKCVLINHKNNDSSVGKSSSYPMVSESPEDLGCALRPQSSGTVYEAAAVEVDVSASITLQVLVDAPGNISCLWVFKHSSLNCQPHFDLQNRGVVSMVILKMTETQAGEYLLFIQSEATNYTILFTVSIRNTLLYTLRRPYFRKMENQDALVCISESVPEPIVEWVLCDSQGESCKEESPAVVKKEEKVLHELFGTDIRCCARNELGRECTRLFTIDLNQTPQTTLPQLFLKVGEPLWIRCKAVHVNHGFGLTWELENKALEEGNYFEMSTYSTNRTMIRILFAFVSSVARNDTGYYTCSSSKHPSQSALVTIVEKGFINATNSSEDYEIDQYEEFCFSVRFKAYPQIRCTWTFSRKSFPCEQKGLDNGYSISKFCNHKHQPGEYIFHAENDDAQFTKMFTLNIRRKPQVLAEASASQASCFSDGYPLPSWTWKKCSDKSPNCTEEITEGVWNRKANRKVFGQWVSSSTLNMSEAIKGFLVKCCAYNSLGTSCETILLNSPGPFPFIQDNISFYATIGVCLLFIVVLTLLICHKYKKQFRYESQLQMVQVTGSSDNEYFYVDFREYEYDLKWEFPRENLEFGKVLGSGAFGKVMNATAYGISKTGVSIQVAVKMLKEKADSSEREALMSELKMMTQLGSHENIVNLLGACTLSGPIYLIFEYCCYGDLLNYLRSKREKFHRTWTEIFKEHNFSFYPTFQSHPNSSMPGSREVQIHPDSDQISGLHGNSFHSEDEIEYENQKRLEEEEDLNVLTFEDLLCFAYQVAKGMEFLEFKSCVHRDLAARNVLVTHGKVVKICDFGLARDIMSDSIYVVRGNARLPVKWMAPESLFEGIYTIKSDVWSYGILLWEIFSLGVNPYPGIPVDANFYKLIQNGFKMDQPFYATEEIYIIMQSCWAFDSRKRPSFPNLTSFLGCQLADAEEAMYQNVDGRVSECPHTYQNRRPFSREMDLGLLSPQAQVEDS
The following applies: FLT3 (N841I); 1 uM; read-out: Percent Control (%). The essentials: as §1

`Cc1ccc(C(=O)Nc2ccc(CN3CCN(C)CC3)c(C(F)(F)F)c2)cc1C#Cc1cnc2c(Nc3cnn(C)c3)cccn12` [Example 1, 4-methyl-3-((8-((1-methyl-1H-pyrazol-4-yl)amino)imidazo[1,2-a]pyridin-3-yl)ethynyl)-N-(4-((4-methylpiperazin-1-yl)methyl)-3-(trifluoromethyl)phenyl)benzamide]: the remaining binding at 1 µM was determined as 85% in assay [1], 80% in assay [2], 2% in assay [3] and 0% in assay [4].
In the case of `Cc1cn(-c2cc(NC(=O)c3ccc(C)c(C#Cc4cnc5c(Nc6cnn(C)c6)cccn45)c3)cc(C(F)(F)F)c2)cn1` [Example 12, 4-methyl-N-(3-(4-methyl-1H-imidazol-1-yl)-5-(trifluoromethyl)phenyl)-3-((8-((1-methyl-1H-pyrazol-4-yl)amino)imidazo[1,2-a]pyridin-3-yl)ethynyl)benzamide], the remaining binding at 1 µM in assay [1] was found to be 85%; in assay [2], 100%; in assay [3] it was 1%; in assay [4] it was 28%.
Taken in the same sequence, the figures for `Cc1ccc(NC(=O)C2(C(=O)Nc3ccc(F)cc3)CC2)cc1C#Cc1cnc2c(Nc3cnn(C(C)C)c3)cccn12` [Example 78] were 100%, 85%, 98% and 59%.
